The supplement of paper PMC4862054

Experiments:
Experiment in all cases: normalised response (% of control), CellTiter-Glo; higher = more viable cells (100 = DMSO, 0 = benzethonium chloride kill control)
Details in all cases: incubation time: 72 h
CAL-85-1 [1] = test system: CAL-85-1
Protocol: (§1)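 DSRT, 72 h incubation, CellTox Green / CellTiter-Glo readout. Signal is normalised to DMSO and benzethonium chloride controls. Value is the normalised response at the highest dose.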

DU-4475 = test system: DU-4475
Protocol: as §1

MDA-MB-231 [2] = test system: MDA-MB-231
Protocol: as §1

MDA-MB-468 [3] = test system: MDA-MB-468
Protocol: as §1

MFM-223 [4] = test system: MFM-223
Protocol: as §1

BT-474 = test system: BT-474
Method in brief: (§2)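 Breast cancer cell lines in 20 µl suspension were added to 384-well plates containing compound at 5 concentrations, spaced in 10-fold steps across a 10,000-fold range chosen for each compound, and incubated for 72 h. CellTox Green fluorescence was read at 485/520 nm, followed by CellTiter-Glo luminescence after 10 min at room temperature. Signals on each plate were normalised so that 0.1 % DMSO equals 100 and a positive kill control equals 0. Every value in the table is the normalised signal at one concentration of the series.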

BT-549 = test system: BT-549
Method in brief: as §2

CAL-148 = test system: CAL-148
Method in brief: as §2

CAL-51 = test system: CAL-51
Method in brief: as §2

CAL-85-1 [5] = test system: CAL-85-1; remark: listed apart in the source
Method in brief: as §2

HCC1143 = test system: HCC1143
Method in brief: as §2

HCC1599 = test system: HCC1599
Method in brief: as §2

HDQ-P1 = test system: HDQ-P1
Method in brief: as §2

Hs578T = test system: Hs578T
Method in brief: as §2

MCF-10A = test system: MCF-10A
Method in brief: as §2

MDA-MB-231 [6] = test system: MDA-MB-231; remark: listed apart in the source
Method in brief: as §2

MDA-MB-436 = test system: MDA-MB-436
Method in brief: as §2

MDA-MB-453 = test system: MDA-MB-453
Method in brief: as §2

MDA-MB-468 [7] = test system: MDA-MB-468; remark: listed apart in the source
Method in brief: as §2

MFM-223 [8] = test system: MFM-223; remark: listed apart in the source
Method in brief: as §2

SK-BR-3 = test system: SK-BR-3
Method in brief: as §2

SMILES	normalised response (CAL-85-1 [1]) [%]	normalised response (DU-4475) [%]	normalised response (MDA-MB-231 [2]) [%]	normalised response (MDA-MB-468 [3]) [%]	normalised response (MFM-223 [4]) [%]	normalised response (BT-474) [%]	normalised response (BT-549) [%]	normalised response (CAL-148) [%]	normalised response (CAL-51) [%]	normalised response (CAL-85-1 [5]) [%]	normalised response (HCC1143) [%]	normalised response (HCC1599) [%]	normalised response (HDQ-P1) [%]	normalised response (Hs578T) [%]	normalised response (MCF-10A) [%]	normalised response (MDA-MB-231 [6]) [%]	normalised response (MDA-MB-436) [%]	normalised response (MDA-MB-453) [%]	normalised response (MDA-MB-468 [7]) [%]	normalised response (MFM-223 [8]) [%]	normalised response (SK-BR-3) [%]
O=C(Nc1cccnc1)N1CCC(Cc2cccc(Oc3ccc(C(F)(F)F)cn3)c2)CC1 [PF-3845] (10000 nM)	89.7	85	89.1	49.1	75.7																
COCC[n+]1c2c(n(Cc3cnccn3)c1C)C(=O)c1ccccc1C2=O [YM155] (10000 nM)	-0.28	-0.36	-0.19	-0.19	5.6																
CN(C)c1nc(N(C)C)nc(N(C)C)n1 [Altretamine] (10000 nM)	108	107	102	104	106																
CNC(=O)c1cc(Oc2ccc(NC(=O)Nc3ccc(Cl)c(C(F)(F)F)c3)c(F)c2)ccn1 [Regorafenib] (10000 nM)	89.3	58.2	61.2	29.8	35.9																
CN(C)CCOc1ccc(/C(=C(/CCCl)c2ccccc2)c2ccccc2)cc1 [Toremifene] (10000 nM)	85.2	88	65.9	75.5	48.4																
Cc1[nH]c2ccccc2c1CCNCc1ccc(/C=C/C(=O)NO)cc1 [Panobinostat] (100 nM)						13.4	46.2	3.76	24.6	25.9	26.3	24.2	62.3	27.4	49.1	10.2	55	3.15	28.2	35.2	1.76
CCc1c2c(nc3ccc(OC(=O)N4CCC(N5CCCCC5)CC4)cc13)-c1cc3c(c(=O)n1C2)COC(=O)[C@]3(O)CC [Irinotecan] (1000 nM)						91	78.2	66.3	96.6	104	88.1	109	95.5	101	88.3	98.1	64.5	152	82	104	78.8
Oc1ccc2c(c1)CC[C@H](c1ccccc1)[C@@H]2c1ccc(OCCN2CCCC2)cc1 [Lasofoxifene] (100 nM)						104	95.8	105	103	97.6	106	107	99.4	106	114	107	107	104	107	105	113
CC(C)C[C@@H](C(=O)N[C@H](C(=O)OC1CCCC1)c1ccccc1)[C@H](O)C(=O)NO [Tosedostat] (1000 nM)						40.6	55.9	72.9	91	48.2	69	96.6	74.1	84.6	87.3	59.7	73.6	48.7	28.7	70.5	76.2
CN(C)CCOc1ccc(/C(=C(/CCCl)c2ccccc2)c2ccccc2)cc1 [Toremifene] (1000 nM)						98.7	104	99.2	108	99.2	96.3	102	96.6	107	92.3	92.6	104	106	97.6	101	106
Cc1ccc(NC(=O)c2ccc(CN3CCN(C)CC3)cc2)cc1Nc1nc(-c2cccnc2)cs1 [Masitinib] (1000 nM)						104	92.9	103	80.5	111	99	106	98.8	102	105	105	105	89.7	89.9	103	105
NC(=O)c1ccc(I)c([N+](=O)[O-])c1 [Iniparib] (1000 nM)						90	101	83.3	126	94.5	87.7	105	97	94.6	82	90	88.2	89.2	83.8	81.3	78
O=C(/C=C/c1cccc(S(=O)(=O)Nc2ccccc2)c1)NO [Belinostat] (1000 nM)						23.1	59	28.5	31.7	44.5	47.3	44.5	68.8	50.6	55.6	36	51.9	14.4	31.8	34.2	15.7
COCC1(CO)C(=O)C2CCN1CC2 (stereo not given) [Prima-1 Met] (1000 nM)						102	96.8	101	108	105	105	106	96.3	101	97.8	104	106	109	105	103	101
N#Cc1ccc(COC[C@H]2O[C@@H](n3c(NCc4ccc(Cl)c(Cl)c4)nc4c(N)ncnc43)[C@H](O)[C@@H]2O)cc1 (1000 nM)						81.8	89.9	98.5	110	107	97.2	116	98.7	86.9	96.6	89.8	109	98.4	93.7	98.9	95.3
COc1cc2ncnc(Nc3ccc(F)c(Cl)c3)c2cc1OCCCN1CCOCC1 [Gefitinib] (1000 nM)						101	97.7	80	103	58.4	96.2	104	69	106	34.2	101	103	95.2	75.3	100	51.9
COCC[n+]1c2c(n(Cc3cnccn3)c1C)C(=O)c1ccccc1C2=O [YM155] (1000 nM)						0.29	-0.05	-0.23	-0.05	-0.48	0.6	-0.01	-0.17	25.6	-0.7	-0.22	-0.32	9.91	-0.57	10.7	-0.16
O=C(Nc1ccncc1)C(=O)c1cn(Cc2ccc(Cl)cc2)c2ccccc12 [Indibulin] (1000 nM)						70.8	42.8	93.2	25.5	38.3	67.2	63.1	80.1	57.8	89.8	78	42.2	67.8	37.7	60	33.2
O=C(Nc1cccnc1)N1CCC(Cc2cccc(Oc3ccc(C(F)(F)F)cn3)c2)CC1 [PF-3845] (1000 nM)						99.2	98.3	99.4	98.3	95	106	104	98.1	104	111	106	104	100	95.1	109	101
COc1cc(OC2CCN(C)CC2)ccc1Nc1ncc2c(n1)n(C1CCCC1)c(=O)n2C [AZ 3146] (1000 nM)						96.5	104	94.5	74.5	98.2	99.2	112	98.4	100	92.5	96.7	110	117	104	98.2	74.6
O=P1(N(CCCl)CCCl)NCCCO1 (stereo not given) [Cyclophosphamide] (4000 nM)						93.1	103	100	99.4	92.1	104	109	98	111	103	99.5	97.8	111	92.9	106	107
c1ccc2c(CCNc3ccc(Nc4ccncc4)cc3)c[nH]c2c1 [Serdemetan] (1000 nM)						76.4	84.2	71.1	24.4	125	83.8	114	90	104	86.2	82.4	89.5	110	77.8	97	79.6
CNC(=O)c1cc(Oc2ccc(NC(=O)Nc3ccc(Cl)c(C(F)(F)F)c3)c(F)c2)ccn1 [Regorafenib] (1000 nM)						91.8	105	99.1	65.6	109	93.5	102	90.9	93.9	90.6	99	101	97.2	105	73.4	102
CN(C)c1nc(N(C)C)nc(N(C)C)n1 [Altretamine] (1000 nM)						101	103	95.2	108	102	103	118	105	110	103	100	99.3	115	107	103	107
C=C1C[C@@H]2[C@H](CC[C@]3(C)C(=O)CC[C@@H]23)[C@@]2(C)C=CC(=O)C=C12 [Exemestane] (1000 nM)						103	92.5	97.7	80.5	98.3	107	115	99.3	100	112	106	102	105	101	110	108
